US6083929A, “Extended type 1 chain glycosphingolipids as tumor-associated antigens” (The Biomembrane Institute, priority 1992, dated 2000)
Entries after “also recorded” stand apart in the source; their conditions may differ. Like-named read-outs stand apart in the source and are kept apart here.

Tests used:
MAb IMH2 = assay: TLC immunostaining / solid-phase ELISA reactivity of MAb IMH2 with GSL antigens; design: species or system mouse; details: TLC immunostaining / antibody binding on solid-phase antigen, IMH2 5 μg/ml
Method: FIG. 8 graphically illustrates the reactivity of MAb IMH2 with various glycosphingolipids (GSLs). Serial double dilutions of various GSL antigens were added to 96-well flat-bottom assay plates (Probind plate, Falcon) in ethanol and dried. Initial concentration of GSL added to the first well was 100 ng/well. MAb binding assay was performed by ELISA as described below. Abscissa, reciprocal of antigen dilution. Ordinate, optical density reading at 490 nm. Paragloboside is abbreviated as "PG". Panel A: reactivity of type 1 chain GSLS. .circle-solid., Le^b /Le^a. .smallcircle., Le^b hexasaccharide (IV^2 FucIII^4 FucLc4). Δ, Le^a /Le^a. .quadrature. […] Panel B: reactivity of type 2 chain GSLs. .circle-solid., Le^y /Le^x (VI^2 FucV^3 FucIII^3 FucnLc6). .smallcircle., Le^y hexasaccharide ceramide (IV^2 FucIII^3 FucnLc4). Δ, Le^x /Le^x (V^3 FucIII^3 FucnLc6). .quadrature. (all of the following had similar reactivity), H1 type 2 chain (IV^2 nLc4); H2 type 2 chain (IV^2 FucnLc6); PG (nLc4); Le^x (III^3 FucnLc4). When GSL antigens were mixed with cholesterol and phosphatidylcholine in a molar ratio of 1:5:3 in ethanol and analyzed as above, the relative degrees of reactivity were essentially the same as shown in the figure.
The binding specificity of MAb IMH2 was tested by thin-layer chromatography immunostaining of various GSL antigens by the method previously described by Magnani et al. (Anal. Biochem. 109:399-402, 1980), and modified by Kannagi et al. (Cancer Res. 43:4997-5005, 1983). IMH2 reactivity was also determined by antibody binding on solid-phase antigen as follows. Each GSL antigen, dissolved in ethanol (100 ng/50 μl), was placed in a well, serially diluted with ethanol to 0.1 ng/50 μl per well in a flat-bottom 48-well plate (Falcon, Becton-Dickinson, Lincoln Park, N.J.), and dried. The dried antigen in each well was then incubated with 1% bovine serum albumin in PBS for 1 hr at room temperature, followed by reaction with IMH2 (5 μg/ml) for 18 hr at 4° C. Each well was washed with PBS, followed by incubation with biotinylated second antibody and avidin-peroxidase conjugate as prepared in the ELISA assay kit. The orange color developed in each well was read by automated "ELISA reader" (EL312 Biokinetics Reader, Biotek Instruments, Winooski, Vt.), and optical density at […] for each well was recorded.

MAb 1B2 = assay: TLC immunostaining with MAb 1B2; type: binding; details: TLC immunostaining after enzymatic degradation of dimeric Le^a
Method: (§1) MAb ST-421 was established as previously described (Watanabe et al., Jpn. J. Cancer Res. (Gann) 76:43-52, 1985). MAb MNH-1, which defines type 1 chain N-acetyllactosamine (Galβ1→3GlcNAcβ1→R), was prepared in laboratory of the inventors; MAb 1B2, which defines type 2 chain N-acetyllactosamine (Galβ1→4GlcNAcβ1→R), was established as previously described (Young et al., J. Biol. Chem. 256:10967-10972, 1981). Anti-Le^a MAb was obtained from Chembiomed Ltd. (Edmonton, Alberta, Canada). […] HPTLC immunostaining was performed using Whatman HPTLC plates (HP-KF) by a modified version (Kannagi et al., J. Biol. Chem. 257:4438-4442, 1982; Kannagi et al., J. Biol. Chem. 257:14865-14874, 1982) of the method originally described by Magnani et al. (Magnani et al., Anal. Biochem. 109:399-402, 1980).
(§2) Enzymatic degradation of 1 mg dimeric Le^a was performed by sequential hydrolysis with 0.5 units of α-fucosidase (bovine kidney), 0.5 units of β-galactosidase (Cackbean), and 0.5 units of β-N-acetylglucosaminidase (bovine epididymis) (Sigma Chemical Co., St. Louis, Mo.). All reactions were carried out in 0.2 M sodium citrate (pH 4.5) for 4 hr at 37° C. in a water bath with shaking. Purification of each degradative product was performed by preparative HPTLC.
(§3) TLC immunostaining of the purified antigen component with various MAbs was performed before and after successive enzymatic degradation. […] Bands a and b are therefore assumed to be Lc6 (Table III, structure 6) and III^4 FucLc6 (structure 13), respectively, based on their reactivity with MAbs and on further enzymatic degradation patterns.

MAb MNH-1 = assay: TLC immunostaining with MAb MNH-1; type: binding; details: TLC immunostaining after enzymatic degradation of dimeric Le^a
Method: as §1, §2, §3

anti-Le^y MAb AH6 = assay: Reactivity of GSL with anti-Le^y MAb AH6; type: binding
Method: as §1

anti-Le^b MAbs = assay: Reactivity of GSL with anti-Le^b MAbs; type: binding
Method: as §1

MAb ST-421 [1] = assay: Solid-phase radioimmunoassay of glycolipids with MAb NCC-ST-421; type: binding; details: ST421 10 μg/ml, initial glycolipid 100 ng
Method: FIG. 7 graphically illustrates the reactivity of dimeric Le^a, Le^a -Le^x and related glycolipids with MAb NCC-ST-421. Solid-phase radioimmunoassay with MAb ST-421 using serially-diluted dimeric Le^a, Le^a /Le^x, and various structurally-related glycoilpid antigens. Initial concentration of glycolipids was 100 ng. ST421 was used at a concentration of 10 μg/ml. A, IV^3 Galβ1→3[Fuc1→4]GlcNAcIII^3 FucnLc4 (Le^a /Le^x; structure 10 in Table III); B, V^4 III^4 Fuc2 Lc6 (dimeric Le^a; structure 11); C, IV^3 Galβ1→3[Fucα1→4]GlcNAcnLc4 (structure 8); D, III^4 FucLc4 (structure 1); E, IV^3 (Galβ1→3GlcNAcIII^3 FucnLc4 (structure 9); F, V^3 III^3 Fuc2 nLc6 (structure 7); G, IV^2 FucLc4 (structure 2); H, IV^3 Galβ1→3GlcNAcnLc4 (structure 4); I, IV^2 III^4 Fuc2 Lc4 (structure 3); J, nLc6 (structure 5); K, VI^2 FucnLc6 (type 2 H with nLc6 core; not shown in Table III); L, VI^2 V^3 Fuc2 nLc6 (Le^y with nLc6 core; not shown in Table III).
The solid-phase radioimmunoassay as described by Kannagi et al. (Cancer Res. 43:4997-5005, 1983) was used. […] Dimeric Le^x and various other structurally related GSLs were not reactive with ST421 (FIG. 7).

MAb ST-421 [2] = assay: TLC immunostaining of GSL with MAb ST-421; type: binding
Method: as §1
Extended sialyl-Le^a on the SLe^a -Le^a structure was verified by enzymatic degradation with sialidase to yield the same compournd as Le^a -Le^a as verified by thin layer chromatography as well as immunostaining with monoclonal antibody ST-421.

anti-Le^a MAb = assay: Reactivity of GSL with anti-Le^a MAb; type: binding
Method: as §1, §3

nLc4
reactivity of MAb IMH2 with GSL (in words) (MAb IMH2): did not react

III^4 FucLc6
reactivity with MAb 1B2 (MAb 1B2): not with anti-Le^a or 1B2 | reactivity with MAb MNH-1 (MAb MNH-1): reacted with MAb MNH-1

IV^2 FucnLc4 [H1]
reactivity of MAb IMH2 with GSL (in words) (MAb IMH2): did not react

Lc4
reactivity with MAb 1B2 (MAb 1B2): did not react | reactivity with MAb MNH-1 (MAb MNH-1): reacted strongly | reactivity of MAb IMH2 with GSL (in words) (MAb IMH2): did not react

VI^2 FucV^3 FucIII^3 FucnLc6 [Le^y /Le^x]
reactivity with anti-Le^y MAb AH6 (anti-Le^y MAb AH6): reacted with AH6 | reactivity with anti-Le^b MAbs (anti-Le^b MAbs): not with anti-Le^b | reactivity of MAb IMH2 with GSL (in words) (MAb IMH2): reacts strongly; also recorded: reacted equally well; also recorded: reacts

III^3 V^3 Fuc2 nLc6 [Dimeric Le^x]
reactivity of MAb IMH2 with GSL (in words) (MAb IMH2): reacted weakly

Lc6
reactivity with MAb 1B2 (MAb 1B2): not with anti-Le^a or 1B2 | reactivity with MAb MNH-1 (MAb MNH-1): reacted with MAb MNH-1

IV^3 Galβ1→3[Fuc1→4]GlcNAcIII^3 FucnLc4 [Le^a /Le^x]
reactivity of MAb IMH2 with GSL (in words) (MAb IMH2): did not react | reactivity of MAb IMH2 with GSL (in words) (MAb IMH2; listed as Le^a /Le^a): reacted weakly | reactivity with ST-421 (MAb ST-421 [1]): strongest reactivity; also recorded: clear preference for them compared to extended Le^a or simple Le^a | reactivity with MAb ST-421 (MAb ST-421 [2]): reacted with anti-Le^a MAb as well as with MAb ST-421 | reactivity with MAb ST-421 (MAb ST-421 [2]; listed as Le^a /Le^a): react strongly; also recorded: reacted with anti-Le^a MAb as well as with MAb ST-421 | reactivity with anti-Le^a MAb (anti-Le^a MAb): reacted with anti-Le^a MAb

III^4 V^4 Fuc2 Lc6 [dimeric Le^a]
reactivity with MAb ST-421 (MAb ST-421 [2]): stained strongly

IV^2 FucLc4 [H type 1 chain]
reactivity of MAb IMH2 with GSL (in words) (MAb IMH2): did not react

VI^2 FucnLc6 [H2]
reactivity of MAb IMH2 with GSL (in words) (MAb IMH2): did not react
